Results on 65 compounds are retold here after patent US8877741B2, “Pyrrolidine derivatives, pharmaceutical compositions and uses thereof” (Boehringer Ingelheim International GmbH, priority 2013, dated 2014).

Sequence of human ACC2 (O00763 129-2458): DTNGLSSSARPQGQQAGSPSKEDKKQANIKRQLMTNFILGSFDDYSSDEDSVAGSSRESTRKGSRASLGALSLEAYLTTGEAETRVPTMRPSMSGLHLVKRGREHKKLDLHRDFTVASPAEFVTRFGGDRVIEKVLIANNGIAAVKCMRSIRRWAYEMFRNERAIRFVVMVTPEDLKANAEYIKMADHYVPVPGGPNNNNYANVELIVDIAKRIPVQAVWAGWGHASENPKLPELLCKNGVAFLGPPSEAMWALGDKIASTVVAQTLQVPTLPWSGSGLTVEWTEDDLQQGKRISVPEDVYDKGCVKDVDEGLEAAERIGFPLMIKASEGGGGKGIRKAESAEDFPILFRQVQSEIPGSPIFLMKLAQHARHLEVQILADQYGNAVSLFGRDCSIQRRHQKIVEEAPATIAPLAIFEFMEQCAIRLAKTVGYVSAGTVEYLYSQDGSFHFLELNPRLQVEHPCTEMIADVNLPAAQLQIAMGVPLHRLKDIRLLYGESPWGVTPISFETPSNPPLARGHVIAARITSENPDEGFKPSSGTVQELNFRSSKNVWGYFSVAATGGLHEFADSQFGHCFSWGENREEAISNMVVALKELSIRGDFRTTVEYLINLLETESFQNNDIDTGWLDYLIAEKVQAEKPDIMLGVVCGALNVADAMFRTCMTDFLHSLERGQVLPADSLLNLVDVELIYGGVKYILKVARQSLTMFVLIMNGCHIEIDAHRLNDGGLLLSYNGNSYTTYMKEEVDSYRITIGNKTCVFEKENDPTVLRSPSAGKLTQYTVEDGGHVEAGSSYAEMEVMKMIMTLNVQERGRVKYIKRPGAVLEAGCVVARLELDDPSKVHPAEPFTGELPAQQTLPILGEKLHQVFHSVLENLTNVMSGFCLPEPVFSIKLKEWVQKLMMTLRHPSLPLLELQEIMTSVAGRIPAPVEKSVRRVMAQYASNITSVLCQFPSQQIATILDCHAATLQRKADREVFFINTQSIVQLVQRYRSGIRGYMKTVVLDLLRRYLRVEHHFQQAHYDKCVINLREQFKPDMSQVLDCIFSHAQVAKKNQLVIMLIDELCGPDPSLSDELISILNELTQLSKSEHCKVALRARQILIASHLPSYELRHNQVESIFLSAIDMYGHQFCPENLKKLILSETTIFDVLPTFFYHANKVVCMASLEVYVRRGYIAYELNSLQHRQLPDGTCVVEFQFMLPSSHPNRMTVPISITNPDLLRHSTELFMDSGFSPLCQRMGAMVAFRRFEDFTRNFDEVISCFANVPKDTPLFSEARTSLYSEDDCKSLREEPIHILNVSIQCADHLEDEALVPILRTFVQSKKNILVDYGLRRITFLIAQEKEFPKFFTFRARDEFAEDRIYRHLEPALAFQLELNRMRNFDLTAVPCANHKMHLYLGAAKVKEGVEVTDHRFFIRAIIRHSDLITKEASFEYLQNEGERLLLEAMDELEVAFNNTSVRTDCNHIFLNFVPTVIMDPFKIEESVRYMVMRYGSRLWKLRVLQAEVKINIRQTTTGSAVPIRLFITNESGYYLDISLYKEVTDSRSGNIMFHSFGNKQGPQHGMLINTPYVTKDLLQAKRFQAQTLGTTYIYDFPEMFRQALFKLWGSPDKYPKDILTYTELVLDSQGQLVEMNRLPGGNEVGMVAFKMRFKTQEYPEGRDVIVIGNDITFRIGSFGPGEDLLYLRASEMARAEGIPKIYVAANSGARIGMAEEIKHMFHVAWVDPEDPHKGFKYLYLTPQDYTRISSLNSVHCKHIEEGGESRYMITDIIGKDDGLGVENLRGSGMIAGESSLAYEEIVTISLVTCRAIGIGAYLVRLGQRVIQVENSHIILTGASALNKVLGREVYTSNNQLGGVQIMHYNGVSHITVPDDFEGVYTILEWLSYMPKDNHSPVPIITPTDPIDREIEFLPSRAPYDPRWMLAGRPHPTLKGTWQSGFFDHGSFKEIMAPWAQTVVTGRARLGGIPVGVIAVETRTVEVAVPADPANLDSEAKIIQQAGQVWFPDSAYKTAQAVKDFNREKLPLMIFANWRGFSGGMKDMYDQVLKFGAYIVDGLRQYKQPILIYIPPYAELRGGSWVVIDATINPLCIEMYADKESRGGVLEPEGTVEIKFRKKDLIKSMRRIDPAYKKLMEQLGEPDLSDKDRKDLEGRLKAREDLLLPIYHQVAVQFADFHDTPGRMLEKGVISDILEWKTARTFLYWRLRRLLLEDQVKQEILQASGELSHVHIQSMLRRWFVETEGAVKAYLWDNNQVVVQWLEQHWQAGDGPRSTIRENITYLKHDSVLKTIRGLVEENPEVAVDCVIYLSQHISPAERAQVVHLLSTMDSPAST

This assay concerns the target human ACC2 (Homo sapiens (Human), UniProt O00763). The assay is described as follows: ACC2 assay, spectrophotometric 384 well assay (NADH-linked kinetic method). It counts as biochemical. Particulars: human ACC2 construct lacking the 128 N-terminal amino acids; coupled lactate dehydrogenase/pyruvate kinase reaction, 340 nm, 25° C. Summed up: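 ADP formation was monitored as NADH consumption at 340 nm for 15 min at 25 °C, using baculovirus-expressed human ACC2 missing its first 128 amino acids, with 500 μM ATP and 2000 μM each of acetyl-CoA and NADH (final). IC50 was fitted by non-linear regression on low-control-subtracted slopes.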
With `CC(=O)N[C@@H](C)c1ccc(O[C@@H]2CCN(c3ccnc(C(F)(F)F)c3)C2)cc1` [Example 8.4], the IC50 was 438 nM. Under `CC(=O)N[C@@H](C)c1ccc(O[C@@H]2CCN(c3ccnc(C(=O)N4CCc5c4ccc(F)c5F)c3)C2)cc1` [Example 8.5] stands 530 nM; under `CC(=O)N[C@@H](C)c1ccc(O[C@@H]2CCN(c3cc(C(F)(F)F)ccn3)C2)cc1` [Example 8.7], 910 nM; under `CC(=O)N[C@@H](C)c1ccc(O[C@@H]2CCN(c3ccc(Cl)c(C(F)(F)F)n3)C2)cc1` [Example 8.8], 265 nM. Next, `CO[C@@H]1CN(c2cccc(C(F)(F)F)n2)C[C@@H]1Oc1ccc([C@H](C)NC(C)=O)cc1` [Example 8.9]: 105 nM; `COc1cnc(N2CC[C@@H](Oc3ccc([C@H](C)NC(C)=O)cc3)C2)c(Cl)c1` [Example 8.10]: 693 nM. Turning to `CC(=O)N[C@@H](C)c1ccc(O[C@@H]2CCN(c3ccnc(C(=O)Nc4ccc(Cl)cc4)c3)C2)cc1` [Example 8.11], it took 1100 nM to reach half-maximal inhibition (IC50).

For `CC(=O)N[C@@H](C)c1ccc(O[C@@H]2CCN(c3ccnc(OC4CCC4)c3)C2)cc1` [Example 9.1], the IC50 worked out at 39 nM. Turning to `CC(=O)N[C@@H](C)c1ccc(O[C@@H]2CCN(c3ccnc(OCC(C)C)c3)C2)cc1` [Example 9.2], the midpoint of inhibition, the IC50, lay at 41 nM.

Compound `COCC(C)Oc1cc(N2CC[C@@H](Oc3ccc([C@H](C)NC(C)=O)cc3)C2)ccn1` (some centres unmarked) [Example 9.3] yielded an IC50 of 480 nM. This IC50 lies about 12-fold higher than the previous one.

On to `CCC(C)Oc1cc(N2CC[C@@H](Oc3ccc([C@H](C)NC(C)=O)cc3)C2)ccn1` (some centres unmarked) [Example 9.4], for which 75 nM corresponded to half-maximal inhibition (IC50). Under `CC#CCCOc1cc(N2CC[C@@H](Oc3ccc([C@H](C)NC(C)=O)cc3)C2)ccn1` [Example 9.5] stands 390 nM; under `CC(=O)N[C@@H](C)c1ccc(O[C@@H]2CCN(c3ccnc(OCc4ccc(F)cc4)c3)C2)cc1` [Example 9.6], 90 nM; under `CC(=O)N[C@@H](C)c1ccc(O[C@@H]2CCN(c3ccnc(OC4CCCCC4)c3)C2)cc1` [Example 9.7], 40 nM. Under `CC#CCOc1cc(N2CC[C@@H](Oc3ccc([C@H](C)NC(C)=O)cc3)C2)ccn1` [Example 9.8] stands 268 nM; under `CC(=O)N[C@@H](C)c1ccc(O[C@@H]2CCN(c3ccnc(OCc4cccc(F)c4)c3)C2)cc1` [Example 9.9], 140 nM. Next, `CC(=O)N[C@@H](C)c1ccc(O[C@@H]2CCN(c3ccnc(O[C@@H]4CCOC4)c3)C2)cc1` [Example 9.10]: 184 nM. For the compound `CC(=O)N[C@@H](C)c1ccc(O[C@@H]2CCN(c3ccnc(OC4CC=CC4)c3)C2)cc1` [Example 9.11], 68 nM corresponded to half-maximal inhibition (IC50).

As to `CC(=O)N[C@@H](C)c1ccc(O[C@@H]2CCN(c3ccnc(OCCc4ccccc4)c3)C2)cc1` [Example 9.12], the IC50 worked out at 534 nM. Turning to `CC(=O)N[C@@H](C)c1ccc(O[C@@H]2CCN(c3ccnc(OC4Cc5ccccc5C4)c3)C2)cc1` [Example 9.13], the IC50 amounted to 230 nM. The compound `CC(=O)N[C@@H](C)c1ccc(O[C@@H]2CCN(c3ccnc(OCCC4CC4)c3)C2)cc1` [Example 9.14] came in with an IC50 of 75 nM.

The compound `CC(=O)N[C@@H](C)c1ccc(O[C@@H]2CCN(c3ccnc(OCC4CCC4)c3)C2)cc1` [Example 9.15] had an IC50 of 40 nM. This IC50 is about 1.9-fold lower than that of the compound before. Under `CC(=O)N[C@@H](C)c1ccc(O[C@@H]2CCN(c3ccnc(OCC4(C)CC4)c3)C2)cc1` [Example 9.16] stands 35 nM; under `C=C(C)COc1cc(N2CC[C@@H](Oc3ccc([C@H](C)NC(C)=O)cc3)C2)ccn1` [Example 9.17], 77 nM; under `COCCOc1cc(N2CC[C@@H](Oc3ccc([C@H](C)NC(C)=O)cc3)C2)ccn1` [Example 9.18], 482 nM. Next, `CC(=O)N[C@@H](C)c1ccc(O[C@@H]2CCN(c3ccnc(OC(C)c4ccccc4)c3)C2)cc1` (some centres unmarked) [Example 9.19]: 330 nM. Under `CCC(CC)Oc1cc(N2CC[C@@H](Oc3ccc([C@H](C)NC(C)=O)cc3)C2)ccn1` [Example 9.20] stands 70 nM; under `CC(=O)N[C@@H](C)c1ccc(O[C@@H]2CCN(c3ccnc(OCc4cccc(F)c4)c3)C2)cc1` [Example 9.21], 477 nM; under `CC(=O)N[C@@H](C)c1ccc(O[C@@H]2CCN(c3ccnc(OC4CCOCC4)c3)C2)cc1` [Example 9.22], 140 nM. Turning to `CC(=O)N[C@@H](C)c1ccc(O[C@@H]2CCN(c3ccnc(OCC4CC4C)c3)C2)cc1` (some centres unmarked) [Example 9.23], the midpoint of inhibition, the IC50, lay at 45 nM. As for `CC(=O)N[C@@H](C)c1ccc(O[C@@H]2CCN(c3ccnc(OCC4CC4C#N)c3)C2)cc1` (some centres unmarked) [Example 9.24], half-maximal inhibition (IC50) was put at 55 nM. Compound `CC(=O)N[C@@H](C)c1ccc(O[C@@H]2CCN(c3ccnc(O[C@H]4CCOC4)c3)C2)cc1` [Example 9.25] gave an IC50 of 572 nM.

Compound `CC(=O)N[C@@H](C)c1ccc(O[C@@H]2CCN(c3ccnc(OCC4CCOC4)c3)C2)cc1` (some centres unmarked) [Example 9.26] came in with an IC50 of 125 nM. Regarding `CC[C@H](C)Oc1cc(N2CC[C@@H](Oc3ccc([C@H](C)NC(C)=O)cc3)C2)ccn1` [Example 9.27], inhibition was half-maximal at 55 nM (IC50). In the case of `CC(=O)N[C@@H](C)c1ccc(O[C@@H]2CCN(c3ccnc(OC4CCCC4)c3)C2)cc1` [Example 9.28], the IC50 was found to be 40 nM. On to `CC(=O)N[C@@H](C)c1ccc(O[C@@H]2CCN(c3ccnc(OCC(C)(C)C)c3)C2)cc1` [Example 9.29], for which half-maximal inhibition (IC50) required 30 nM. `CC(=O)N[C@@H](C)c1ccc(O[C@@H]2CCN(c3ccnc(OCc4cccnc4)c3)C2)cc1` [Example 9.30] came in with an IC50 of 402 nM. Next, `CC(=O)N[C@@H](C)c1ccc(O[C@@H]2CCN(c3ccnc(OCC(F)F)c3)C2)cc1` [Example 9.31]: 90 nM. Consider `CC(=O)N[C@@H](C)c1ccc(O[C@@H]2CCN(c3ccnc(OCC(C)(C)O)c3)C2)cc1` [Example 9.32], for which the IC50 turned out to be 305 nM.

`CC(=O)N[C@@H](C)c1ccc(O[C@@H]2CCN(c3ccnc(OCc4ccccn4)c3)C2)cc1` [Example 9.33]: the IC50 was 535 nM. `CC(=O)N[C@@H](C)c1ccc(O[C@@H]2CCN(c3ccnc(OCCC(C)C)c3)C2)cc1` [Example 9.34] registered an IC50 of 95 nM. `CC(=O)N[C@@H](C)c1ccc(O[C@@H]2CCN(c3ccnc(OCc4ccncc4)c3)C2)cc1` [Example 9.35] showed an IC50 of 584 nM. Under `CC(C)COc1cc(N2CC[C@@H](Oc3ccc([C@H](C)NC(=O)C4CC4)cc3)C2)ccn1` [Example 9.36] stands 209 nM; under `CCCOc1cc(N2CC[C@@H](Oc3ccc([C@H](C)NC(=O)C4CC4)cc3)C2)ccn1` [Example 9.37], 385 nM. For the compound `CCOc1cc(N2CC[C@@H](Oc3ccc([C@H](C)NC(=O)C4CC4)cc3)C2)ccn1` [Example 9.38], inhibition was half-maximal at 510 nM (IC50). Under `C[C@H](NC(=O)C1CC1)c1ccc(O[C@@H]2CCN(c3ccnc(OCC4CC4)c3)C2)cc1` [Example 9.39] stands 149 nM; under `C[C@H](NC(=O)C1CC1)c1ccc(O[C@@H]2CCN(c3ccnc(OCC4CC4(F)F)c3)C2)cc1` (some centres unmarked) [Example 9.40], 326 nM. Next, `C[C@H](NC(=O)C1CC1)c1ccc(O[C@@H]2CCN(c3ccnc(OC4CCC4)c3)C2)cc1` [Example 9.41]: 95 nM. Under `C[C@H](NC(=O)C1CC1)c1ccc(O[C@@H]2CCN(c3ccnc(OCC(F)F)c3)C2)cc1` [Example 9.42] stands 402 nM. In turn, `C[C@H](NC(=O)C1CC1)c1ccc(O[C@@H]2CCN(c3ccnc(O[C@@H]4CCOC4)c3)C2)cc1` [Example 9.43] displayed a 50% inhibitory concentration (IC50) of 184 nM.

`CO[C@@H](C)COc1cc(N2CC[C@@H](Oc3ccc([C@H](C)NC(C)=O)cc3)C2)ccn1` [Example 9.44]: the IC50 is 639 nM.

In the case of `CC(=O)N[C@@H](C)c1ccc(O[C@@H]2CCN(c3ccnc(O[C@@H]4CCC[C@@H]4O)c3)C2)cc1` [Example 9.45], the IC50 is 500 nM.

`CCC(COC)Oc1cc(N2CC[C@@H](Oc3ccc([C@H](C)NC(C)=O)cc3)C2)ccn1` (some centres unmarked) [Example 9.46] gave an IC50 of 544 nM. `CC(=O)N[C@@H](C)c1ccc(O[C@@H]2CCN(c3ccnc(O[C@@H]4CCC[C@H]4O)c3)C2)cc1` [Example 9.47] came in with an IC50 of 745 nM.

Turning to `CC(=O)N[C@@H](C)c1ccc(O[C@@H]2CCN(c3ccnc(OCC4CCCO4)c3)C2)cc1` (some centres unmarked) [Example 9.48], the IC50 was 495 nM. The compound `CC(=O)N[C@@H](C)c1ccc(O[C@@H]2CCN(c3ccnc(OCC4CCCO4)c3)C2)cc1` (some centres unmarked) [Example 9.49] gave a half-inhibitory concentration (IC50) of 668 nM. Next, `CC(=O)N[C@@H](C)c1ccc(O[C@@H]2CCN(c3ccnc(OCC(C)C)c3F)C2)cc1` [Example 9.50]: 110 nM; `CC(=O)N[C@@H](C)c1ccc(O[C@@H]2CCN(c3ccnc(OCC4CC4)c3F)C2)cc1` [Example 9.51]: 42 nM; `CC(=O)N[C@@H](C)c1ccc(O[C@@H]2CCN(c3ccnc(OCC(F)F)c3F)C2)cc1` [Example 9.52]: 61 nM. Compound `CCCOc1nccc(N2CC[C@@H](Oc3ccc([C@H](C)NC(C)=O)cc3)C2)c1F` [Example 9.53] returned a half-maximal inhibitory concentration (IC50) of 40 nM. Under `CC(=O)N[C@@H](C)c1ccc(O[C@@H]2CCN(c3ccnc(OCC(F)F)c3C)C2)cc1` [Example 9.54] stands 115 nM; under `CCCOc1nccc(N2CC[C@@H](Oc3ccc([C@H](C)NC(C)=O)cc3)C2)c1C` [Example 9.55], 59 nM. The compound `CC(=O)N[C@@H](C)c1ccc(O[C@@H]2CCN(c3cc(OCC(C)C)ncc3C#N)C2)cc1` [Example 9.56] gave an IC50 of 900 nM.

Consider `CC(=O)N[C@@H](C)c1ccc(O[C@@H]2CCN(c3ccnc(OCC4CC4)c3C)C2)cc1` [Example 9.57], for which the midpoint of inhibition, the IC50, lay at 55 nM.

Regarding `CC(=O)N[C@@H](C)c1ccc(O[C@@H]2CCN(c3ccnc(OCC(C)C)c3C)C2)cc1` [Example 9.58], half-maximal inhibition (IC50) required 55 nM.

What is called IC50 is the point on the concentration scale where inhibition reaches its midpoint. A high value points to weaker potency.
